The values below come from US20250297036A1, “METHOD FOR CO[…]-DERIVED PEPTIDE-NUCLEIC ACID HYBRID MOLECULES ON BASIS OF IN VITRO SELECTION” (priority 2022, published 2025).

The subject of one data set is pseudotype SARS-CoV-2. The format is cell-based.
The target in another data set is SARS-CoV-2 RBD (Severe acute respiratory syndrome coronavirus 2, UniProt P0DTC2).
Data set [1] has as its target SARS-CoV-2 RBD, wild type (SARS-CoV-2), P0DTC2.
Data set [2] has as its target SARS-CoV-2 spike protein on GFP-reporting pseudotype SARS-CoV-2 (SARS-CoV-2), P0DTC2. Put plainly: cell-based or functional assay.

For LGKGDFR [LGKGDFR peptide], in the data set on pseudotype SARS-CoV-2, the “infection rate with pseudotype SARS-CoV-2 (percentage of infected cells)” value is on record as 12.6%.
As to “R7-02 (GGAAGAGATGGCGACACGCAATCGTGGGTTGGGGATATAATGGTAAGCTGATCCTGATGG; 5' hexynyl group, further chemistry not given here)”, the “infection rate with pseudotype SARS-CoV-2 (percentage of infected cells)” value in the data set on pseudotype SARS-CoV-2 is 1.9%. Besides, in the data set with SARS-CoV-2 RBD, the “competition with P05DHu and AM122 antibodies” value was “insignificant”.
With LGKGDFRK (modifications not checked) [LGKGDFR peptide (hACE2-derived hotspot peptide, not conjugated to DNA)], in data set [1], the % inhibition of RBD-hACE2 interaction came out at 11.7%. In data set [2], this molecule returned an infection rate with pseudotype SARS-CoV-2 (GFP-expressing hACE2-293T cells) of 12.6%.
